Data published in patent US20260184708A1, “PYRIDAZINONES AND METHODS OF USE THEREOF” (GFB (ABC), LLC, priority 2017, published 2026).
pIC50: −log10 of the molar value.

target: T1, TRPC4 (Homo sapiens, UniProt Q9UBN4); test: TRPC4 FLIPR Assay (HEK-TREx hTRPC4, Englerin A stimulation); assay type: cell-based; details: Table 9; HEK-TREx hTRPC4; read-out: hTRPC4-FLIPR IC50
T1 construct: expressed in transfected cells; host or cells: HEK-TREx (HekTrex-293), cell line ICLN-1694, tetracycline-induced
T1 sequence (Q9UBN4 1-982 isoform Q9UBN4-5): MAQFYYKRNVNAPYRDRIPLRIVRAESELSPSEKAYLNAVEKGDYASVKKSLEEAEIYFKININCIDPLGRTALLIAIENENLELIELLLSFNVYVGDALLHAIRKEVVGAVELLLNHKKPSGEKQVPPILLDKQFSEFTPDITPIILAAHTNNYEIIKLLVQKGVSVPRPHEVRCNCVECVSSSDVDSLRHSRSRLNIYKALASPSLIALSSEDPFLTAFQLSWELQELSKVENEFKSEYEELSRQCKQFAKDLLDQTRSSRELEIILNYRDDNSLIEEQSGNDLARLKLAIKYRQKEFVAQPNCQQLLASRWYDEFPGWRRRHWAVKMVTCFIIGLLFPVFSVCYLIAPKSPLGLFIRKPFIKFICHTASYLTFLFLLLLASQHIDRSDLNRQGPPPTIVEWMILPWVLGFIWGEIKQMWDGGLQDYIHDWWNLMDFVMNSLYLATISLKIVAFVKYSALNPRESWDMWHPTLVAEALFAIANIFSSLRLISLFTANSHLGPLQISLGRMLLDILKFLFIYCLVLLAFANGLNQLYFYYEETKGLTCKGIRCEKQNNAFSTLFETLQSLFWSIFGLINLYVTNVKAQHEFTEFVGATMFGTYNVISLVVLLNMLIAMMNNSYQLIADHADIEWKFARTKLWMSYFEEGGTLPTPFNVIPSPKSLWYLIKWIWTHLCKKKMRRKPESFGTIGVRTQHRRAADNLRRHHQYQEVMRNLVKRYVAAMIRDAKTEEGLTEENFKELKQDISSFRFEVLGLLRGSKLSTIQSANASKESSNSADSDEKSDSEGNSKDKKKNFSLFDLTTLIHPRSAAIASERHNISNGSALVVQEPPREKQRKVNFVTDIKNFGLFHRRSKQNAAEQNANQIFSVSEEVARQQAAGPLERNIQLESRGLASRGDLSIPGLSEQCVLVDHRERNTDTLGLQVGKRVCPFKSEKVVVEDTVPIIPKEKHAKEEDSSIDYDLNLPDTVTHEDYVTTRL
Summary of the method: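 Tetracycline-induced (1 μg/ml) HEK-TREx hTRPC4 cells in EBSS, calcium dye-loaded; compound pre-incubated 5 min, then 100 nM Englerin A added and fluorescence followed 5 min on FLIPR.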

Q: How did the pIC50 turn out when `C[C@@H](c1ccccc1C(F)(F)F)N1CCN(c2cn[nH]c(=O)c2Cl)CC1=O` [drawing 1044] was run?
A: The pIC50 was 6.00 to 11.00.

Q: `C[C@@H](c1ccc(F)cc1C(F)(F)F)N1CCN(c2cn[nH]c(=O)c2Cl)CC1=O` [drawing 1049] was tested. Which pIC50 did it give?
A: The pIC50 was 6.00 to 11.00.

Q: `C[C@H](c1ccc(F)cc1C(F)(F)F)N1C[C@@H](C)N(c2cn[nH]c(=O)c2Cl)CC1=O` [drawing 1048] was tested. Which pIC50 did it give?
A: Its pIC50 is 6.00 to 11.00.

same assay, conditions: Table 10; HEK-TREx hTRPC4; read-out: TRPC4-FLIPR ICSO

Q: With `CCc1ncccc1N(C)c1ncc2c(n1)CN(c1cn[nH]c(=O)c1Cl)C2` [drawing 1154] as the molecule, how does the pIC50 read?
A: The pIC50 was 6.00 to 11.00.

Q: With `C[C@@H](c1ccc(F)cc1C(F)F)n1nnc2c1CCN(c1cn[nH]c(=O)c1Cl)C2` [drawing 1107] as the molecule, how does the pIC50 read?
A: The pIC50 was 6.00 to 11.00.

Q: With `C[C@H](c1ccc(F)cc1C(F)(F)F)n1nnc2c1CCN(c1cn[nH]c(=O)c1Cl)[C@H]2C` [drawing 1092] as the molecule, how does the pIC50 read?
A: The pIC50 was 6.00 to 11.00.

Q: With `CCS(=O)(=O)c1nc2c(n1Cc1ccccc1C(F)(F)F)CCN(c1cn[nH]c(=O)c1Cl)C2` [drawing 1079] as the molecule, how does the pIC50 read?
A: The pIC50 was 6.00 to 11.00.

Q: `COCc1ncccc1Cn1cnc2c1CCN(c1cn[nH]c(=O)c1Cl)C2` [drawing 1065] was tested. Which pIC50 did it give?
A: The pIC50 was 5.30 to 6.00.

Q: How did the pIC50 turn out when `[2H]c1nc2c(n1Cc1ccccc1C(F)(F)F)CCN(c1cn[nH]c(=O)c1Cl)C2` was run?
A: Its pIC50 is 6.00 to 11.00.

Q: How did the pIC50 turn out when `CNC(=O)c1nn(Cc2ccc(F)cc2C(F)F)c2c1CN(c1cn[nH]c(=O)c1Cl)CC2` [drawing 1117] was run?
A: The pIC50 was 6.00 to 11.00.

Q: With `COCc1ccccc1Cn1cnc2c1CCN(c1cn[nH]c(=O)c1Cl)C2` [drawing 1053] as the molecule, how does the pIC50 read?
A: The pIC50 was 6.00 to 11.00.

Q: How did the pIC50 turn out when `C[C@H](c1ccc(F)cc1C(F)F)n1nc(C(N)=O)c2c1CCN(c1cn[nH]c(=O)c1Cl)C2` was run?
A: Its pIC50 is 6.00 to 11.00.

Q: How did the pIC50 turn out when `CNC(=O)c1nc2c(n1Cc1ccccc1C(F)(F)F)CCN(c1cn[nH]c(=O)c1Cl)C2` [drawing 1134] was run?
A: Its pIC50 is 6.00 to 11.00.

Q: `CNC(=O)c1nn([C@H](C)c2ccccc2C(F)F)c2c1CN(c1cn[nH]c(=O)c1Cl)CC2` [drawing 1113] was tested. Which pIC50 did it give?
A: The pIC50 was 6.00 to 11.00.

Q: `CS(=O)(=O)c1nc2c(n1Cc1ccccc1C(F)(F)F)CCN(c1cn[nH]c(=O)c1Cl)C2` [drawing 1142] was tested. Which pIC50 did it give?
A: Its pIC50 is 6.00 to 11.00.

Q: With `C[C@H](c1ccccc1C(F)F)n1nnc2c1CCN(c1cn[nH]c(=O)c1Cl)C2` [drawing 1100] as the molecule, how does the pIC50 read?
A: Its pIC50 is 6.00 to 11.00.

Q: `COC[C@H](c1ccccc1C(F)(F)F)n1cnc2c1CCN(c1cn[nH]c(=O)c1Cl)C2` [drawing 1120] was tested. Which pIC50 did it give?
A: Its pIC50 is 6.00 to 11.00.

Q: How did the pIC50 turn out when `O=c1[nH]ncc(N2CCc3c(ncn3Cc3ccc(F)cc3Cl)C2)c1Cl` [drawing 1136] was run?
A: The pIC50 was 6.00 to 11.00.

Q: `C[C@@H](c1ccccc1C(F)F)n1nnc2c1CCN(c1cn[nH]c(=O)c1Cl)C2` [drawing 1106] was tested. Which pIC50 did it give?
A: The pIC50 was 6.00 to 11.00.

Q: `C[C@@H](c1cccnc1CC(F)F)n1nnc2c1CCN(c1cn[nH]c(=O)c1Cl)C2` [drawing 1125] was tested. Which pIC50 did it give?
A: Its pIC50 is 6.00 to 11.00.

Q: `CN(c1ncc2c(n1)CN(c1cn[nH]c(=O)c1Cl)C2)c1ccc(F)cc1Cl` [drawing 1144] was tested. Which pIC50 did it give?
A: Its pIC50 is 6.00 to 11.00.

Q: How did the pIC50 turn out when `C[C@@H]1Cc2c(nnn2[C@@H](C)c2ccc(F)cc2C(F)(F)F)CN1c1cn[nH]c(=O)c1Cl` [drawing 1085] was run?
A: Its pIC50 is 6.00 to 11.00.

Q: With `O=c1[nH]ncc(N2CCc3c(Cc4ccc(F)cc4C(F)(F)F)n[nH]c3C2)c1Cl` [drawing 1153] as the molecule, how does the pIC50 read?
A: The pIC50 was 6.00 to 11.00.

Q: How did the pIC50 turn out when `C[C@H](c1ccccc1Cl)n1nnc2c1CCN(c1cn[nH]c(=O)c1Cl)C2` [drawing 1133] was run?
A: Its pIC50 is 6.00 to 11.00.

Q: `O=c1[nH]ncc(N2CCc3c(nnn3Cc3ccc(F)cc3CC(F)(F)F)C2)c1Cl` [drawing 1131] was tested. Which pIC50 did it give?
A: Its pIC50 is 6.00 to 11.00.

Q: How did the pIC50 turn out when `C[C@@H]1Cc2c(c(C(N)=O)nn2Cc2ccccc2C(F)(F)F)CN1c1cn[nH]c(=O)c1Cl` [drawing 1118] was run?
A: Its pIC50 is 6.00 to 11.00.

Q: With `C[C@@H](c1ccccc1Cl)n1nnc2c1CCN(c1cn[nH]c(=O)c1Cl)C2` [drawing 1140] as the molecule, how does the pIC50 read?
A: Its pIC50 is 6.00 to 11.00.

Q: `C[C@H](c1ccccc1C(F)(F)F)n1nnc2c1CCN(c1cn[nH]c(=O)c1Cl)[C@H]2C` [drawing 1078] was tested. Which pIC50 did it give?
A: Its pIC50 is 6.00 to 11.00.

Q: `NC(=O)c1nc2c(n1Cc1ccccc1C(F)(F)F)CCN(c1cn[nH]c(=O)c1Cl)C2` [drawing 1135] was tested. Which pIC50 did it give?
A: The pIC50 was 6.00 to 11.00.

Q: How did the pIC50 turn out when `CCN(c1ncc2c(n1)CN(c1cn[nH]c(=O)c1Cl)C2)c1ccccc1Cl` [drawing 1148] was run?
A: Its pIC50 is 6.00 to 11.00.

Q: How did the pIC50 turn out when `CC(c1ccc(F)cc1C(F)F)n1nc(C(N)=O)c2c1CCN(c1cn[nH]c(=O)c1Cl)C2` (centres unmarked) [drawing 1114] was run?
A: The pIC50 was 6.00 to 11.00.

Q: With `O=c1[nH]ncc(N2CCc3c(ncn3Cc3ccccc3Cl)C2)c1Cl` [drawing 1139] as the molecule, how does the pIC50 read?
A: Its pIC50 is 6.00 to 11.00.

Q: With `C[C@@H]1Cc2c(nnn2[C@@H](C)c2ccccc2C(F)(F)F)CN1c1cn[nH]c(=O)c1Cl` [drawing 1071] as the molecule, how does the pIC50 read?
A: Its pIC50 is 6.00 to 11.00.

Q: With `O=c1[nH]ncc(N2CCc3c(c(=O)[nH]n3Cc3ccccc3C(F)(F)F)C2)c1Cl` [drawing 1081] as the molecule, how does the pIC50 read?
A: Its pIC50 is 6.00 to 11.00.

Q: `C[C@H](c1ccccc1C(F)(F)F)n1nc(C(N)=O)c2c1CCN(c1cn[nH]c(=O)c1Cl)C2` [drawing 1123] was tested. Which pIC50 did it give?
A: Its pIC50 is 6.00 to 11.00.
